Consider one compound from US20090138988A1, “MODIFICATION OF PLANT DISEASE RESISTANCE” (priority 2007, published 2009).

Structures are written as SMILES.

The test system of the assay is P. syringae pv. tabaci. Nature of the assay: Squalene complementation of SQS1 RNAi line resistance to nonhost pathogen. Type of assay: in vivo, Arabidopsis. The method, then:
Squalene was supplied at the concentration as indicated above each panel when transplanting two-week old seedlings and thereafter watering. P. syringae pv. tabaci was infiltrated into leaves of four-week old plants at 1×10^7 cfu/ml. The inoculated plants were kept at 19-21° C. and covered to keep high humidity. Pictures were taken 3 days post inoculation
It was hypothesized that SQS1 RNAi lines would have less squalene compared to wild-type plants. Arabidopsis has two SQS genes: SQS1 and SQS2. T-DNA knockout lines for SQS2 are not available in SALK or GABI collections. Even though both SQS1 and SQS2 have more than 80% nucleotide identity, in the SQS1 RNAi line, only the transcripts of SQS1 was reduced but not SQS2 (FIG. 10). A brief pathway of sterol biosynthesis in plants and also other pathways that may be affected by silencing of SQS1 are shown in FIG. 11. […] It was therefore shown that squalene plays a critical role in conferring nonhost resistance against certain pathogens, and the role is recoverable in susceptible RNAi lines by squalene dosing.

`CC(C)=CCC/C(C)=C/CC/C(C)=C/CC/C=C(\C)CC/C=C(\C)CCC=C(C)C` [squalene]: the “recovery of nonhost resistance of SQS1 RNAi lines” value is, setting by setting: (10 μM squalene fed, P. syringae pv. tabaci 1×10^7 cfu/ml, 3 days post inoculation) “completely recovered resistance phenotype back to wild-type levels”; (squalene fed at 1 μM to 10 μM, P. syringae pv. tabaci) “recovered nonhost resistance in a dose dependent manner”.
